Where two headings read alike, the source gives them in different places.
How the values were obtained:
[1] = Hydration study in methanol/water aw 0.1, 0.5 and 0.9; assay type: physicochemical
Text: Hydration studies of ethanolamine salt.

[2] = Dynamic vapor sorption (DVS) analysis; assay type: physicochemical
Experimental: GC analysis indicated residual solvent contents of 2847 ppm methanol; and 27 ppm TBME. […] No residual methanol or TBME was detected due to signal over-lap. […] TG-DSC analysis indicated two weight losses. The first weight loss of 2.3 wt. % was observed between 20-170° C. […] In the DSC thermogram, three endothermic events were observed (FIG. 17I). […] FT-IR (FIG. 17J) and Raman spectra (FIG. 17K) were recorded for reference. […] XRPD pattern of the ethanolamine salt was retained post-DVS (FIG. 17N). […] However, at the end of the experiment the solids on the microscope slide had discolored (FIG. 17O).

[3] = Stability study at 25° C./60% RH, 40° C./75% RH and 60° C. (XRPD, HPLC purity, impurity tracking); conditions: for XRPD: number = sodium salt XRPD Pattern; for RRT 0.801 / RRT 0.970 / RRT 1.000 (HBI-3808) / RRT 1.025 (Isomer of HBI-3808) / Total Impurities / RRT 1.935 / RRT 1.767: impurity tracking
Text: Stability of HBI-3808 Sodium Salt Pattern 2 was studied over 13 weeks.
Table 2F presents impurity tracking results from a 13-week stability study of HBI-3808 sodium salt of Pattern 2. […]

[4] = Varying humidity (VH)-XRPD; assay type: physicochemical; conditions: 30° C.
Experimental: During the sorption phase, sodium salt Pattern 2 was observed between 40-60% RH. […] A mixture of sodium salt Pattern 2 and 5 was also observed at 80% RH. […] During the second desorption, from 90% RH to 40% RH, sodium salt Pattern 5 was maintained.
VH-XRPD analysis was carried out between 40-0% RH (FIG. 5L).

[5] = Salt disproportionation study (slurry in water, XRPD of solids, pH of mother liquor); assay type: physicochemical; conditions: for XRPD of recovered solids: ca. 24 h at 25° C.
Experimental: The pH of the filtered mother liquor was 9.77.
Salt disproportionation studies of ethanolamine salt. […] The pH of the filtered mother liquor was 8.65.
Method: 40 mg of sodium salt of HBI-3808 having a XRPD of Pattern 2, was weighed into a 2 mL push cap vial and a stirrer bar added. 0.2 mL of water was added to the vial and the experiment was stirred for ca. 24 h at 25° C. After 24 h the slurry was filtered by centrifuge filtration and the recovered solids were analyzed by XRPD. The pH of the filtered mother liquor was measured.

[6] = for HPLC Conc./: based on free acid
Text: pH-dependent solubility of the HBI- 3808 sodium salt of Pattern 2 was studied.
pH dependent solubility of the HBI- 3808 sodium salt of Pattern 5 was studied.

[7] = 40° C./75% RH (open vial), 2 Weeks
[8] = 40° C./75% RH (open vial), 4 Weeks
[9] = 40° C./75% RH (open vial), 8 Weeks
[10] = 40° C./75% RH (open vial), 13 Weeks

Structure (SMILES): CC1CCC2(C(=O)[O-])CCC3(C)C(=CCC4C5(C)CC(O)C(O)C(C)(CO)C5CCC43C)C2C1(C)O.[Na+] (centres unmarked) [HBI-3808 sodium salt of Pattern 2, sodium salt of 23-hydroxytormentic acid]
- XRPD of solids recovered at the end of the experiment [1]: consistent with sodium salt Pattern 2
- XRPD of recovered material post-DVS [2]: consistent with sodium salt of Pattern 5
- reversibility of mass uptake/loss ([2]; Pattern 2: second DVS cycle): reversible
- water (mass) uptake ([2]; at 80% RH/25° C. (Pattern 2: second DVS cycle)): 0.8 wt. %
- irreversible mass loss ([2]; first sorption cycle between 60-80% RH): about 2.4 wt. %
- HPLC/ % area ([3]; 25° C./60% RH (open vial), 1 Week): 97.3 % area
- HPLC/ % area ([3]; 25° C./60% RH (open vial), 2 Weeks): 97.2 % area
- HPLC/ % area ([3]; 25° C./60% RH (open vial), 4 Weeks): 97.3 % area
- HPLC/ % area ([3]; 25° C./60% RH (open vial), 8 Weeks): 96.7 % area
- HPLC/ % area ([3]; 25° C./60% RH (open vial), 13 Weeks): 97.1 % area
- HPLC/ % area ([3]; 40° C./75% RH (open vial), 1 Week): 97.1 % area
- HPLC/ % area [3, 7]: 97.0 % area
- XRPD [3, 7]: 5
- HPLC/ % area [3, 8]: 97.3 % area
- XRPD [3, 8]: 5
- HPLC/ % area [3, 9]: 96.3 % area
- XRPD [3, 9]: 5
- HPLC/ % area [3, 10]: 97.0 % area
- XRPD [3, 10]: 5
- HPLC/ % area ([3]; 60° C. (closed vial), 1 Week): 97.2 % area
- XRPD ([3]; 60° C. (closed vial), 1 Week): 2
- HPLC/ % area ([3]; 60° C. (closed vial), 2 Weeks): 97.3 % area
- XRPD ([3]; 60° C. (closed vial), 2 Weeks): 2
- HPLC/ % area ([3]; 60° C. (closed vial), 4 Weeks): 97.3 % area
- XRPD ([3]; 60° C. (closed vial), 4 Weeks): 2
- HPLC/ % area ([3]; 60° C. (closed vial), 8 Weeks): 96.4 % area
- XRPD ([3]; 60° C. (closed vial), 8 Weeks): 2
- HPLC/ % area ([3]; 60° C. (closed vial), 13 Weeks): 97.3 % area
- change in chemical purity by HPLC over the stability study ([3]; all conditions (25° C./60% RH; 40° C./75% RH; 60° C.), 13 weeks (Pattern 5: 4 weeks)): no significant decrease in chemical purity
- RRT 0.801 ([3]; 25° C./60% RH, 1 week): 0.10 % area
- RRT 0.970 ([3]; 25° C./60% RH, 1 week): 0.10 % area
- RRT 1.000 (HBI-3808) ([3]; 25° C./60% RH, 1 week): 97.31 % area
- RRT 1.025 (Isomer of HBI-3808) ([3]; 25° C./60% RH, 1 week): 2.48 % area
- Total Impurities ([3]; 25° C./60% RH, 1 week): 2.69 % area
- RRT 0.970 ([3]; 25° C./60% RH, 2 weeks): 0.12 % area
- RRT 1.000 (HBI-3808) ([3]; 25° C./60% RH, 2 weeks): 97.29 % area
- RRT 1.025 (Isomer of HBI-3808) ([3]; 25° C./60% RH, 2 weeks): 2.39 % area
- RRT 1.935 ([3]; 25° C./60% RH, 2 weeks): 0.20 % area
- Total Impurities ([3]; 25° C./60% RH, 2 weeks): 2.71 % area
- RRT 0.970 ([3]; 25° C./60% RH, 4 weeks): 0.11 % area
- RRT 1.000 (HBI-3808) ([3]; 25° C./60% RH, 4 weeks): 97.47 % area
- RRT 1.025 (Isomer of HBI-3808) ([3]; 25° C./60% RH, 4 weeks): 2.41 % area
- Total Impurities ([3]; 25° C./60% RH, 4 weeks): 2.53 % area
- RRT 0.970 ([3]; 25° C./60% RH, 8 weeks): 0.10 % area
- RRT 1.000 (HBI-3808) ([3]; 25° C./60% RH, 8 weeks): 96.99 % area
- RRT 1.025 (Isomer of HBI-3808) ([3]; 25° C./60% RH, 8 weeks): 2.51 % area
- RRT 1.767 ([3]; 25° C./60% RH, 8 weeks): 0.29 % area
- Total Impurities ([3]; 25° C./60% RH, 8 weeks): 3.01 % area
- RRT 0.801 ([3]; 25° C./60% RH, 13 weeks): 0.12 % area
- RRT 1.000 (HBI-3808) ([3]; 25° C./60% RH, 13 weeks): 97.33 % area
- RRT 1.025 (Isomer of HBI-3808) ([3]; 25° C./60% RH, 13 weeks): 2.37 % area
- RRT 1.935 ([3]; 25° C./60% RH, 13 weeks): 0.19 % area
- Total Impurities ([3]; 25° C./60% RH, 13 weeks): 2.67 % area
- RRT 0.801 ([3]; 40° C./75% RH, 1 week): 0.10 % area
- RRT 0.970 ([3]; 40° C./75% RH, 1 week): 0.14 % area
- RRT 1.000 (HBI-3808) ([3]; 40° C./75% RH, 1 week): 97.28 % area
- RRT 1.025 (Isomer of HBI-3808) ([3]; 40° C./75% RH, 1 week): 2.48 % area
- Total Impurities ([3]; 40° C./75% RH, 1 week): 2.72 % area
- RRT 0.970 ([3]; 40° C./75% RH, 2 weeks): 0.12 % area
- RRT 1.000 (HBI-3808) ([3]; 40° C./75% RH, 2 weeks): 97.26 % area
- RRT 1.025 (Isomer of HBI-3808) ([3]; 40° C./75% RH, 2 weeks): 2.40 % area
- RRT 1.935 ([3]; 40° C./75% RH, 2 weeks): 0.22 % area
- Total Impurities ([3]; 40° C./75% RH, 2 weeks): 2.74 % area
- RRT 0.970 ([3]; 40° C./75% RH, 4 weeks): 0.11 % area
- RRT 1.000 (HBI-3808) ([3]; 40° C./75% RH, 4 weeks): 97.5 % area
- RRT 1.025 (Isomer of HBI-3808) ([3]; 40° C./75% RH, 4 weeks): 2.41 % area
- Total Impurities ([3]; 40° C./75% RH, 4 weeks): 2.52 % area
- RRT 0.970 ([3]; 40° C./75% RH, 8 weeks): 0.21 % area
- RRT 1.000 (HBI-3808) ([3]; 40° C./75% RH, 8 weeks): 96.88 % area
- RRT 1.025 (Isomer of HBI-3808) ([3]; 40° C./75% RH, 8 weeks): 2.51 % area
- RRT 1.767 ([3]; 40° C./75% RH, 8 weeks): 0.40 % area
- Total Impurities ([3]; 40° C./75% RH, 8 weeks): 3.12 % area
- RRT 1.000 (HBI-3808) ([3]; 40° C./75% RH, 13 weeks): 97.41 % area
- RRT 1.025 (Isomer of HBI-3808) ([3]; 40° C./75% RH, 13 weeks): 2.40 % area
- RRT 1.935 ([3]; 40° C./75% RH, 13 weeks): 0.20 % area
- Total Impurities ([3]; 40° C./75% RH, 13 weeks): 2.59 % area
- RRT 0.801 ([3]; 60° C., 1 week): 0.12 % area
- RRT 1.000 (HBI-3808) ([3]; 60° C., 1 week): 97.46 % area
- RRT 1.025 (Isomer of HBI-3808) ([3]; 60° C., 1 week): 2.43 % area
- Total Impurities ([3]; 60° C., 1 week): 2.54 % area
- RRT 0.970 ([3]; 60° C., 2 weeks): 0.12 % area
- RRT 1.000 (HBI-3808) ([3]; 60° C., 2 weeks): 97.27 % area
- RRT 1.025 (Isomer of HBI-3808) ([3]; 60° C., 2 weeks): 2.41 % area
- RRT 1.935 ([3]; 60° C., 2 weeks): 0.20 % area
- Total Impurities ([3]; 60° C., 2 weeks): 2.73 % area
- RRT 0.970 ([3]; 60° C., 4 weeks): 0.11 % area
- RRT 1.000 (HBI-3808) ([3]; 60° C., 4 weeks): 97.49 % area
- RRT 1.025 (Isomer of HBI-3808) ([3]; 60° C., 4 weeks): 2.40 % area
- Total Impurities ([3]; 60° C., 4 weeks): 2.51 % area
- RRT 0.970 ([3]; 60° C., 8 weeks): 0.12 % area
- RRT 1.000 (HBI-3808) ([3]; 60° C., 8 weeks): 97.04 % area
- RRT 1.025 (Isomer of HBI-3808) ([3]; 60° C., 8 weeks): 2.49 % area
- RRT 1.767 ([3]; 60° C., 8 weeks): 0.35 % area
- Total Impurities ([3]; 60° C., 8 weeks): 2.96 % area
- RRT 1.000 (HBI-3808) ([3]; 60° C., 13 weeks): 97.41 % area
- RRT 1.025 (Isomer of HBI-3808) ([3]; 60° C., 13 weeks): 2.41 % area
- RRT 1.935 ([3]; 60° C., 13 weeks): 0.18 % area
- Total Impurities ([3]; 60° C., 13 weeks): 2.59 % area
- RRT 1.000 (HBI-3808) ([3]; T = 0): 97.82 % area
- RRT 1.025 (Isomer of HBI-3808) ([3]; T = 0): 2.18 % area
- Total Impurities ([3]; T = 0): 2.18 % area
- input purity by HPLC ([3]; input material of the stability study (baseline)): 97.2 % area
- XRPD pattern during desorption ([4]; 40-0% RH): no change in XRPD Pattern
- XRPD pattern during sorption ([4]; at 70% RH): composite XRPD diffractogram of sodium salt Pattern 2 and 5
- XRPD pattern during sorption ([4]; at 90% RH): only sodium salt Pattern 5 was observed
- pH of the filtered mother liquor [5]: 9.77
- XRPD of recovered solids [5]: consistent with HBI-3808 sodium salt of Pattern 5
- XRPD of recovered solids ([5]; listed as sodium salt of HBI-3808 having a XRPD of Pattern 2): consistent with sodium salt of HBI-3808 having a XRPD of pattern 5
- final Measured pH ([6]; FaSSGF): 9.35
- HPLC Conc./ ([6]; FaSSGF): >221.2 mg/mL
- concentration ([6]; pH 1.2): < 100 µg/mL
- HPLC Conc./ ([6]; target pH 1.2 chloride buffer, start 200 mg/mL (ethanolamine salt 100 mg/mL)): <0.005 mg/mL
- HPLC Conc./ ([6]; target pH 3.0 acetate buffer): 0.006 mg/mL
- HPLC Conc./ ([6]; target pH 4.0 acetate buffer): <0.005 mg/mL
- HPLC Conc./ ([6]; target pH 6.8 phosphate buffer): 0.4 mg/mL
- HPLC Conc./ ([6]; target pH 8.0 phosphate buffer): 15.3 mg/mL
